Here are results for 18 compounds from US4638088A, “Pesticidal biphenylyloxy and biphenylylalkoxy aryl acyl urea compounds” (Union Carbide Corporation, priority 1984, dated 1987).

≈ marks a conversion by molar mass, not a printed value. Read-outs that look alike come from different tables or passages of the source.

One assay concerns two-spotted mite. The experiment in a line: Mite Larvacidal Test Method. Type of assay: in vivo. The settings on record: Tetranychus urticae, 144 h, two-spotted mite larvae, five to six days, read-out: Mortality Rating at 500 ppm, Larvae. As to the method: Then the larvae are transferred to bean plants 6-8 inches in height. A sufficient number of larvae for testing (50-100) were transferred from TEPP treated leaves to the fresh plants in 24 hours.
Infested Tendergreen bean plants are placed on a revolving turntable. Test compounds are formulated with DMF, acetone, and a 3 to 1 mixture of Triton 172 and 152 (alkylphenoxy polyethoxyethanol surfactant mixture), respectively and then diluted in water to appropriate concentrations of chemical for application to the infested plants by use of a DeVilbiss spray gun with air pressure set at 40 pounds. The volume of 100 milliliters is sufficient to wet the plants to run off. A blank formulation is used for the control.
The treated plants are held at 80°±5° F. and 50±5 percent relative humidity for a period of five to six days, when mortality counts of the larvae are made.

Another assay has as its system Heliothis zea. In words: Tobacco Budworm and Cotton Bollworm Leaf Spray Bait Test (cotton bollworm). The assay is classed as in vivo. The settings on record: Helicoverpa zea, 120 h, read-out: LC50 values, Heliothis Zea. As to the method:
(§1) Suspension of the test compounds were prepared by dissolving one gram of compound in 50 milliliters of acetone in which had been dissolved 0.1 gram (10 percent of the weight of compound) of an alkylphenoxy polyethoxyethanol surfactant, as an emulsifying or dispersing agent. The resulting solution was mixed into 150 milliliters of water to give roughly 200 milliliters of a suspension containing the compound in finely divided form. The thus-prepared stock suspension contained 0.5 percent by weight of compound. The test concentrations in parts per million by weight employed in the tests described hereinbelow were obtained by appropriate dilutions of the stock suspension with water. Certain of the test compounds were also prepared by dissolving 375 mg of compound in 7.5 ml of dimethylformamide. Fifteen milliliters of acetone containing 37.5 mg (10 percent of the weight of test compound) of an alkylphenoxy polyethoxyethanol surfactant, as a wetting/emulsifying/dispersing agent was added to the dimethylformamide solution. Fifty-two and one-half milliliters of water wasa mixed into the dimethylformamide-acetone mixture to give roughly 75 ml of a suspension containing the compound in solution or in finely divided form. The thus prepared stock suspension contained 0.5 percent by weight of compound. The test procedures were as follows:
(§2) Second instar larvae of the tobacco budworm (weighing about 4.5 mg) (Heliothis virescens, F.) and the cotton bollworm (weighing about 2.5 mg) (Heliothis zea, (Boddie)), obtained commercially and reared on artificial diet at a temperature of 80°±5° F. and a relative humidity of 50±5 percent, constituted the test insects.
(§3) Using a procedure similar to the above, but substituting cotton plants for snapbeans, treated and dried cotton leaves were introduced into 9 cm Petri dishes which were organized into groups of 10-dish sets. One randomly selected larvae was introduced into each dish of a ten dish set and the dishes were closed. The closed dishes were labelled and held at 80°±5° F. for five days. Larvae which were unable to move the length of the body, even upon stimulation, were considered dead. Percent mortality was recorded for various concentration levels. LC50 or concentration required to kill 50 percent of the larvae was determined from the mortality figures.

The next assay concerns Heliothis virescens. In words: Tobacco Budworm and Cotton Bollworm Leaf Spray Bait Test (tobacco budworm). The settings on record: 120 h, read-out: LC50 values, Heliothis Virescens. The assay is classed as in vivo. The method, then: as §1, §2, §3
For a further assay, the system named is southern armyworm. The experiment in a line: Southern Armyworm Leaf Spray Bait Test. Type of assay: in vivo. As to conditions: Spodoptera eridania, 120 h, read-out: Activity at 500 ppm, SAW, 500 ppm; Southern Armyworm larvae; up to five days. The method, then: as §1
Larvae of the southern armyworm (Spodoptera eridania, (Cram.), reared on Tendergreen bean plants at a temperature of 80°±5° F. and a relative humidity of 50±5 percent, constituted the test insects.
Potted Tendergreen bean plants of standarad height and age were placed on a revolving turntable and sprayed with 100-110 milliliters of test compound formulation by use of a DeVilbiss spray gun set at 40 psig air pressure. This application, which lasted 25 seconds, was sufficient to wet plants to run-off. As a control, 100-110 milliliters of a water-acetone-emulsifier solution containing no test compound was also sprayed on infested plants. When dry, the paired leaves were separated and each one was placed in a 9 centimeter Petri dish lined with moistened filter paper. Five randomly selected larvae were introduced into each dish and the dishes were closed. The closed dishes were labeled and held at 80°-85° F. for up to five days. Although the larvae could easily consume the whole leaf within twenty-four hours, no more food was added. Larvae which were unable to move the length of the body, even upon stimulation by prodding, were considered dead. Percent mortality was recorded for various concentration levels.

The test system of a further assay is Mexican bean beetle. In words: Mexican Bean Beetle Leaf Spray Test. The assay is classed as in vivo, Epilachna varivestic. The settings on record: Epilachna varivestis, 120 h, Mexican Bean Beetle larvae, five days, read-out: Activity at 500 ppm, MBB. The method, then:
as §1
Fourth instar larvae of the Mexican bean beetle (Epilachna varivestic, Muls.), reared on Tendergreen bean plants at a temperature of 80°±5° F. and 50±5 percent relative humidity, were the test insects. For certain of the tests second instar larvae (weighting about 6 mg) of the Mexican bean beetle (Epilachna varaivestis, Muls.), reared on Sieva Pole lime bean plants at a temperature of 80°±5° F. and 50±5 percent relative humidity, were the test insects.
The test compounds were formulated by diluting the stock suspension with water to give a suspension containing 500 parts of test compound per million parts of final formulation. Potted Tendergreen bean plants of standard height and age were placed on a revolving turntable and sprayed with 100-110 milliliters of test compound formulation by use of a DeVilbiss spray gun set at 40 psig air pressure. This application, which lasted 25 seconds, was sufficient to wet plants to run-off. As a control, 100-110 milliliters of a water-acetone-emulsifier solution containing no test compound was also sprayed on infested plants. When dry, the paired leaves were separated and each was placed in a 9 centimeter Petri dish lined with moistened filter paper. Five randomly selected larvae were introduced into each dish, and the dishes were closed. The closed dishes were labeled and held at a temperature of 80°±5° F., for five days. Although the larvae could easily consume the leaf within 24 to 48 hours, no more food was added. Larvae which were unable to move the length of the body, even upon stimulation, were considered dead. Percent mortality was recorded for various concentration levels.

Where [1] appears, read: Heliothis Zea, second instar larvae, five days.

In the case of `Cc1cc(NC(=O)NC(=O)c2c(F)cccc2Cl)c(C)c(Cl)c1Oc1ccccc1-c1ccccc1` [Example 40], the mortality at 500 ppm in the assay on two-spotted mite lay within 71 to 100%.

As for `O=C(NC(=O)c1c(F)cccc1F)Nc1ccc(Cl)cc1` [Comparative Example A, reference compound], the LC50 was determined as 500 µg/mL (≈ 1610 µM) in the assay with Heliothis zea and 31 µg/mL (≈ 99.8 µM) with Heliothis virescens.

As for `Cc1cc(NC(=O)NC(=O)c2c(F)cccc2F)c(C)c(Cl)c1Oc1ccccc1-c1ccccc1` [Example 36], the LC50 stood at 2.2 µg/mL (≈ 4.34 µM) in the assay on Heliothis zea (setting [1]) and 9 µg/mL (≈ 17.8 µM) in the assay on Heliothis virescens.

Consider `Cc1cc(NC(=O)NC(=O)c2c(F)cccc2F)c(C)c(Cl)c1Oc1ccc(-c2ccccc2)cc1` [Example 11], for which the mortality at 500 ppm in the assay on southern armyworm and in the assay on Mexican bean beetle was 71 to 100% throughout.

Turning to `Cc1cc(NC(=O)NC(=O)c2ccccc2F)c(C)c(Cl)c1Oc1ccc(Cl)cc1-c1ccccc1` [Example 18], the mortality at 500 ppm with southern armyworm and in the assay with Mexican bean beetle was 71 to 100% each time.

As for `O=C(NC(=O)c1ccccc1Cl)Nc1cc(Cl)c(OCc2ccccc2-c2ccccc2)c(Cl)c1` [Example 2, 1-(2-chlorobenzoyl)-3-[3,5-dichloro-4-(2-phenylphenylmethoxy)phenyl]urea], the mortality at 500 ppm in the assay with southern armyworm and in the assay on Mexican bean beetle was 71 to 100% each time.

For `Cc1cc(NC(=O)NC(=O)c2ccccc2Cl)c(C)c(Cl)c1Oc1ccccc1-c1ccccc1` [Example 3], the mortality at 500 ppm with southern armyworm and with Mexican bean beetle was 71 to 100% throughout.

`Cc1cc(NC(=O)NC(=O)c2c(F)cccc2F)c(C)c(Cl)c1Oc1ccc(-c2ccccc2)cc1Cl` [Example 14]: the mortality at 500 ppm in the assay on southern armyworm and in the assay on Mexican bean beetle was 71 to 100% each time.

`Cc1cc(NC(=O)NC(=O)c2ccccc2Cl)c(C)c(Cl)c1Oc1ccc(-c2ccccc2)cc1` [Example 10]: the figures for the mortality at 500 ppm in the assay on southern armyworm and in the assay on Mexican bean beetle were 0 to 30% and 71 to 100%, respectively.

With `Cc1cc(NC(=O)NC(=O)c2c(F)cccc2Cl)c(C)c(Cl)c1Oc1ccccc1-c1ccccc1` [Example 5], the mortality at 500 ppm with southern armyworm and in the assay with Mexican bean beetle was 71 to 100% throughout.

For the compound `Cc1ccc(Oc2ccc(NC(=O)NC(=O)c3c(F)cccc3F)cc2Cl)c(C)c1` [Comparative Example J, reference compound], the LC50 in the assay on Heliothis zea (setting [1]) and in the assay with Heliothis virescens was over 100 µg/mL each time.

Regarding `Cc1cc(NC(=O)NC(=O)c2c(F)cccc2F)c(C)c(Cl)c1Oc1ccc(Cl)cc1-c1ccccc1` [Example 38], the LC50 is 1.6 µg/mL (≈ 2.96 µM) in the assay with Heliothis zea (setting [1]) and 1.9 µg/mL (≈ 3.51 µM) with Heliothis virescens.

In the case of `Cc1cc(NC(=O)NC(=O)c2ccccc2Cl)c(C)c(Cl)c1Oc1ccccc1-c1ccccc1` [Example 37], the LC50 in the assay with Heliothis zea (setting [1]) was 1.7 µg/mL (≈ 3.36 µM); in the assay with Heliothis virescens, 4 µg/mL (≈ 7.91 µM).

For the compound `Cc1cc(Oc2ccccc2-c2ccccc2)c(Cl)cc1NC(=O)NC(=O)c1c(F)cccc1F` [Example 22], the mortality at 500 ppm in the assay with southern armyworm and with Mexican bean beetle was 71 to 100% each time.

As for `O=C(NC(=O)c1c(F)cccc1F)Nc1cc(Cl)c(OCc2ccccc2-c2ccccc2)c(Cl)c1` [Example 39], the LC50 was determined as 5 µg/mL (≈ 9.48 µM) in the assay on Heliothis zea (setting [1]) and 16 µg/mL (≈ 30.3 µM) in the assay with Heliothis virescens.

In the case of `O=C(NC(=O)c1c(F)cccc1F)Nc1cc(Cl)c(Oc2cccc3ccccc23)c(Cl)c1` [Comparative Example K, reference compound], the values for the LC50 in the assay with Heliothis zea (setting [1]) and in the assay on Heliothis virescens were 30 µg/mL (≈ 61.6 µM) and 500 µg/mL (≈ 1030 µM), respectively.

Consider `Cc1cc(NC(=O)NC(=O)c2ccccc2Cl)c(C)c(Cl)c1Oc1ccc(Cl)cc1-c1ccccc1` [Example 17], for which the mortality at 500 ppm in the assay on southern armyworm and in the assay on Mexican bean beetle was 71 to 100% throughout.

Consider `Cc1cc(Oc2ccccc2-c2ccccc2)c(Cl)cc1NC(=S)NC(=O)c1ccccc1Cl` [Example 23], for which the mortality at 500 ppm in the assay with southern armyworm and in the assay with Mexican bean beetle was 71 to 100% throughout.
